Experimental data as given in US20140349314A1, “METHODS AND COMPOSITIONS FOR DETECTING AND TREATING INFLAMMATORY DISEASE” (Beth Israel Deaconess Medical Center, Inc., priority 2010, published 2014).
Where a SMILES comes first, the peptide text is derived from it. The star is where a group is joined. Cbz = O=C(OCc1ccccc1)*

Key:
HSC [1] = assay: Apoptosis assay (Annexin V / 7-AAD FACS) in HSC; format: cell-based, human
Procedure: It was reported earlier that MP derived from macrophages could trigger apoptosis in recipient cells.
24 hrs serum-starved HSC were incubated with S100-MP for 24 hrs. Apoptosis and necrosis induction by S100-MP were assessed by FACS analysis for Annexin V and 7-aminoactinomycin D staining (both from eBioscience™, San Diego, Calif., USA) on a LSR2 FACS analyzer with CELLQuest software (Becton Dickinson, San Jose, Calif.).

[2] = test system: human LX-2 hepatic stellate cells (HSC); assay: Fibrosis-related transcript levels by quantitative RT-PCR in LX-2 HSC incubated with T cell-derived MP; format: cell-based; settings: 24 hours
Procedure: Effect of S100 T Cell-MP on Fibrosis-Related Gene Expression by HSC Fibrosis related transcripts were measured from 200×10^3 serum-starved human LX-2 HSC 24 hours after addition of 1×10^3 or 50×10^3 S100-MP from Jurkat T cells using quantitative RT-PCR. S10-MP, plain medium, and ST alone served as controls. MP were obtained from PHA-activated and/or apoptotic (ST-treated) Jurkat T cells. After T cell apoptosis induction, significant changes in fibrosis-related transcripts were found with 50×10^3 S100-MP, while equivalent amounts of S10-MP had no effect (FIG. 6). […] Similar results were obtained when S100-MP were incubated with freshly isolated primary rat HSC. Here the human S100-MP induced MMP-3 even 9-fold (FIG. 7).
For induction of apoptosis T cells were cultured in RPMI and treated with 4 μM/mL Staurosporine (ST, Cell Signaling Technology®, Danvers, Mass.) for 4 hours. […]
(§1) HSC (200×10^3/well) were seeded into six-well cell culture plates and serum-starved as above. […] Relative transcript levels were quantified by real-time RT-PCR on a LightCycler 1.5 instrument (Roche, Mannheim, Germany) using the TaqMan methodology as described previously (52). […] Experiments were performed in triplicates and values represent means±SD, being expressed as arbitrary units relative to the housekeeping gene beta2-microglobulin.

CD54 (ICAM-1) on HSC = assay: ICAM-1 (CD54) upregulation on HSC by TNFα (flow cytometry); format: cell-based, human
Procedure: TNFα (PEPROTECH®, Rocky Hill, N.J., USA) was added to HSC cultures, and ICAM-1 expression assessed after 2, 4 and 24 hrs by flow cytometric analysis using anti-ICAM-1-FITC (eBioscience™, San Diego, Calif., USA) on a LSR2 FACS analyzer as described above.

HSC [3] = assay: MMP transcript levels in HSC after S100-MP with or without TNFα; format: cell-based, human
Procedure: FIG. 13C is a graph showing mRNA transcript levels of the indicated MMP gene in HSC after addition of S100-MP with or without TNFα (10 ng/mL) for 24 h (*p<0.05, **p=0.04, ***p=0.001).
It remained to be shown what cell membrane molecule(s) or receptor(s) mediate(s) attachment and uptake of S100-MP by HSC. […] Assuming that ICAM-1 on the recipient HSC is engaged by CD11a/CD18 on the S100-MP, any treatment of HSC that increases CD54 should enhance MP uptake and subsequent fibrolytic activation of HSC. We therefore incubated HSC with 10 ng/mL TNF-α, a strong inducer of CD54, which induced a robust (>10-fold) upregulation of CD54 after 24 hrs (FIG. 13B). This led to a further significant MP-induced increase (by 40%) of MMP-3 mRNA expression in the induced HSC as compared to untreated HSC (FIG. 13C). […] For MMP-3 the effect of combined TNF-α and MP treatment was overadditive as compared to the added effects of TNF-α or S100-MP alone (FIG. 13C).

[4] = test system: MP-stimulated MMP-3 mRNA expression in HSC; assay: Signaling pathway inhibition: MP-stimulated MMP-3 mRNA expression in HSC; format: cell-based, human; settings: for inhibition of MP-stimulated MMP-3 induction: vs untreated S100-MP stimulated controls, SB 5 μg/mL, MG 15 μg/mL
Procedure: In order to define major signaling pathways that lead to MMP-induction by S100-MP, we used specific inhibitors of several kinases. MP-stimulated MMP-3 mRNA expression served as fibrolytic read-out.
Pathway inhibition experiments were performed in 24 hour serum-starved HSC. […] The proteasome inhibitor MG132 (Rockland Inc., USA) was used to block NFκB nuclear translocation and activity.

[5] = test system: TGFβ1 (5 ng/mL)-activated HSC; assay: Fibrosis-related transcript levels in TGFβ1-activated HSC incubated with S100-MP; format: cell-based, human; settings: 5 ng/mL TGFβ1
Procedure: FIG. 9 is a series of graphs showing mRNA transcript levels of the indicated gene in TGFβ1 (5 ng/mL)-activated HSC when incubated with the indicated amount of S100-MP for 24 hours. All experiments were performed at least twice with n=3-4 per group. Results (means±SD) are expressed as arbitrary units relative to beta2-microglobulin mRNA; *p<0.05 vs. medium control.
Human HSC were exposed to 5 ng/mL TGFβ1, which elicits a strong fibrogenic response. […] Thus TGFβ1 enhanced HSC procollagen α1(I) expression 2.7-fold, which after MP addition was reduced by almost 40%, and MP increased the expression of MMP-3 and MMP-13 almost 2.5- and 2.1-fold, respectively.
as §1, with “above. HSC were then incubated with 1×10^3 or 50×10^3 S10-MP or S100-MP for 24 hours, followed by total RNA extraction from cells using TRIzol (Invitrogen, Carlsbad, Calif.). One μg of RNA was reverse-transcribed using random primers and Superscript RNase H-reverse transcriptase (Invitrogen).” for “above.”

With `CN[C@@H]1C[C@H]2O[C@@](C)([C@@H]1OC)n1c3ccccc3c3c4c(c5c6ccccc6n2c5c31)C(=O)NC4` [ST, staurosporine] the “apoptosis or necrosis induction in HSC, in words” value (HSC [1]; 24 hours of incubation, ST 0.04 μM/mL) was “induced apoptosis”, the “late apoptosis of HSC” value (HSC [1]; 24 hours, ST alone) was at most 10% and the “necrosis of HSC” value (HSC [1]; 24 hours, ST alone) was “up to 14%”. The “higher percentage of late apoptotic HSC compared to S100-MP” value (HSC [1]; ST 0.04 μM/mL, 7-AAD/Annexin FACS) was 7 fold and the “effect on fibrosis-related gene expression (MMPs, TIMP-1, procollagen α1(I)) in HSC, in words” value [2] was “induced only MMP-9”.

With TNF-α the “upregulation of CD54 on HSC” value (CD54 (ICAM-1) on HSC; 10 ng/mL TNF-α, after 24 hrs) was over 10 fold, the “upregulation of CD54 on HSC” value (CD54 (ICAM-1) on HSC; TNFα 10 ng/mL for 0, 4, and 24 hours) was 40% and the “further MP-induced increase of MMP-3 mRNA in TNF-α-induced HSC as compared to untreated HSC” value (HSC [3]; TNF-α 10 ng/mL plus S100-MP, 24 h) was 40%. The “effect of TNF-α alone on HSC MMP-3 mRNA” value (HSC [3]; TNF-α alone) was “not capable to enhance”, the “effect of TNF-α alone on HSC MMP-9 and MMP-13 expression” value (HSC [3]; TNF-α alone) was “modestly induced” and the “effect of combined TNF-α and MP treatment on MMP-3 compared to added single effects” value (HSC [3]; TNF-α plus S100-MP) was “overadditive”.

With `C[S+]([O-])c1ccc(-c2nc(-c3ccncc3)c(-c3ccc(F)cc3)[nH]2)cc1` (stereo not drawn) [SB203580] the “inhibition of MP-stimulated MMP-3 induction” value [4] was 50%.

In the case of `N#CC(=C(/N)Sc1ccccc1N)/C(C#N)=C(\N)Sc1ccccc1N` [U0126], the “effect on MP-stimulated MMP-3 mRNA, in words” value [4] is reported as “Complete abrogation”.

In the case of “TGFβ1: profibrogenic cytokine used to activate HSC”, the “enhancement of HSC procollagen α1(I) expression” value [5] is reported as 2.7 fold.

In the case of `CC(C)C[C@@H](C=O)NC(=O)[C@H](CC(C)C)NC(=O)[C@H](CC(C)C)NC(=O)OCc1ccccc1` [MG132] (Cbz-Leu-Leu-Leu-aldehyde), the “inhibition of MP-stimulated MMP-3 induction” value [4] is reported as 50%.
